Laboratory results reported in ChEMBL document CHEMBL5154826, “Discovery of the Clinical Candidate MAK683: An EED-Directed, Allosteric, and Selective PRC2 Inhibitor for the Treatment of Advanced Malignancies” (J Med Chem, 2022).
Converted amounts (≈) assume the structure as drawn.

Legend:
[1] = Intrinsic clearance in human hepatocytes measured per 10^6 cells; format: ADME, cell-based, Hepatocyte; details: read-out: CLH
[2] = Oral biovailability in ICR (CD-1) mouse at 2 mg/kg, po; format: ADME, organism-based; details: in vivo
[3] = Plasma protein binding in human assessed as unbound fraction at 1 uM measured after 6 hrs LC-MS/MS analysis; format: ADME, cell-free
[4] = In vivo inhibition of PRC2 in PBMC collected from human Karpas-422 cells xenografted Athymic NTac:NIH-Whn nude rat assessed as reduction in H3K27me3 level at 3 mg/kg, po, qd for 57 days measured after 4 hrs of last dose by FACS method; format: functional; design: scale not given: the % may be the effect or the level left; details: time 57 day
[5] = Intrinsic clearance in mouse hepatocytes measured per 10^6 cells; format: ADME, cell-based, Hepatocyte; details: read-out: CLH
[6] = Genotoxicity in Salmonella typhimurium TA98 in presence of S9 fraction by Ames test; format: toxicity, subcellular; details: salmonella enterica subsp. enterica serovar typhimurium
[7] = Terminal half life in ICR (CD-1) mouse at 2 mg/kg, po or 1 mg/kg, iv after 1 week by LC-MS/MS analysis; format: ADME, organism-based; details: in vivo, time 1 weeks, read-out: beta t1/2 (converted)
[8] = Dose normalized AUC in wild type Beagle dog at 2 mg/kg, po or 1 mg/kg, iv after 1 week by LC-MS/MS analysis; format: ADME, organism-based, Canis lupus familiaris; details: in vivo, 168 h, time 1 weeks
[9] = High throughput solubility of the compound in SGF after 16 to 24 hrs by MS/MS analysis; format: physicochemical; details: time 16-24 hrs
[10] = Plasma protein binding in mouse at 1 uM measured after 6 hrs LC-MS/MS analysis; format: ADME, cell-free; details: read-out: PPB (converted)
[11] = In vivo inhibition of PRC2 in PBMC collected from human Karpas-422 cells xenografted Athymic NTac:NIH-Whn nude rat assessed as reduction in H3K27me3 level at 0.3 mg/kg, po, qd for 52 days measured after 4 hrs of last dose by FACS method; format: functional; design: scale not given: the % may be the effect or the level left; details: time 52 day
[12] = target: Voltage-gated inwardly rectifying potassium channel KCNH2 (Homo sapiens, UniProt Q12809); experiment: Inhibition of hERG potassium channel in HEK293 cells by Q-patch clamp assay; format: toxicity, cell-based
Chain of Voltage-gated inwardly rectifying potassium channel KCNH2 (Q12809 whole entry): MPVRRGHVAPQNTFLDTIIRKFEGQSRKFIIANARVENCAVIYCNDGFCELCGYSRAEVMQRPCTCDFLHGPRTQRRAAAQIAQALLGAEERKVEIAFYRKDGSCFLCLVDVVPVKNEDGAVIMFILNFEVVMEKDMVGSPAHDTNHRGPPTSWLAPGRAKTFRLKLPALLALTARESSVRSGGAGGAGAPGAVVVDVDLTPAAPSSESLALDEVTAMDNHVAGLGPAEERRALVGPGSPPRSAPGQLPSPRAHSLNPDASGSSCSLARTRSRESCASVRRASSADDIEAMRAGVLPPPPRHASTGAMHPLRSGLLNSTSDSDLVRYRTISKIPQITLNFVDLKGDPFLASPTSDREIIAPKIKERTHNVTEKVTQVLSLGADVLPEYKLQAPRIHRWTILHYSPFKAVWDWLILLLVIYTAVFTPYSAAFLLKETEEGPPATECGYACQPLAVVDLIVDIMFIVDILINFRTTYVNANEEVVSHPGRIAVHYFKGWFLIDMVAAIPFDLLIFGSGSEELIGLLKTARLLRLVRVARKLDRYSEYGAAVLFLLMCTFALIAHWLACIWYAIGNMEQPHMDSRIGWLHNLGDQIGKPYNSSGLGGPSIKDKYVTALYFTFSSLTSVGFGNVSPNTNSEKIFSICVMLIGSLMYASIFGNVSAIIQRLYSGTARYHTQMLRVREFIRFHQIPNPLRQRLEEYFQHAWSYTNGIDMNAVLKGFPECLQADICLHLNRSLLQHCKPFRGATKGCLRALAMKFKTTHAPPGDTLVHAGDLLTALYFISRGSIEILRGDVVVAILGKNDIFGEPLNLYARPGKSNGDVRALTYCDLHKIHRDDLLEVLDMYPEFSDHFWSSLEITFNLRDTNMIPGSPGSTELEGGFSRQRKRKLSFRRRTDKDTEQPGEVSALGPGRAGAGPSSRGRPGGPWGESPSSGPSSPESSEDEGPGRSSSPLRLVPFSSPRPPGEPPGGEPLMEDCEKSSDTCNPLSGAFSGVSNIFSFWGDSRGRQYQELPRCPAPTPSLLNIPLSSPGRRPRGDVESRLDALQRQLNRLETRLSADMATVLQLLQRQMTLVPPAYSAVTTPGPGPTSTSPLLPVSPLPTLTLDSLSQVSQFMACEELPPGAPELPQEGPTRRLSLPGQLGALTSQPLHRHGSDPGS

hepatocyte CLint [1]: 4.4 µL/min/1e6 cells
bioavailability [2]: 77%
fraction unbound at 6 h, 1 µM [3]: 0.08
hepatocyte CLint [5]: 3.9 µL/min/1e6 cells
half-life [7]: 1.5 h
AUC/dose [8]: 2093 nM·h
solubility [9]: 8.74 mM (≈ 3290 µg/mL)
fraction unbound at 6 h, 1 µM [10]: 0.15
SMILES: Cc1ncccc1-c1cnc(NCc2c(F)ccc3c2CCO3)n2cnnc12
Activity [4]: 80%
Activity [6]: Non-Toxic
Activity [11]: 20%
IC50 [12]: > 30 µM
